Values belong to the compound of their own block, whether it stands above or below them. Calls of active or inactive are those of the source. The rule behind the calls is not given here.
Tests used:
[1] = biological target: T1, Tyrosine-protein phosphatase non-receptor type 1 (Homo sapiens, UniProt P18031); experiment: Inhibition of human PTP1B (1 to 321 amino acid residues) expressed in Escherichia coli using TRDI(pY)E as substrate incubated for 15 mins prior to substrate addition measured after 20 mins by malachite green staining-based colorimetric assay
T1 sequence (P18031 whole entry): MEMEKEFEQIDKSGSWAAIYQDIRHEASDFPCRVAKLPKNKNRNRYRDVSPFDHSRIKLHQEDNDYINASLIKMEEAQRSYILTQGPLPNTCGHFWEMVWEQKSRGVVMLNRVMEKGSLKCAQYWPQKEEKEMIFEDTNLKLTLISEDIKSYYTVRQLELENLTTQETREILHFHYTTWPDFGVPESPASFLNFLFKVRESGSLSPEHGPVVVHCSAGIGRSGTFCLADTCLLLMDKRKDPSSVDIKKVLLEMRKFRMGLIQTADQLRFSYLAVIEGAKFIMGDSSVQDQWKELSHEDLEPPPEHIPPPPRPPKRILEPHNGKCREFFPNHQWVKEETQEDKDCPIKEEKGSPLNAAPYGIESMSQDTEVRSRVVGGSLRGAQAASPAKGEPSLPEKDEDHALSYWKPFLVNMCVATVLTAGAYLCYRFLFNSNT

[2] = AUC in C57 mouse at 10 mg/kg, iv; format: ADME, organism-based; set-up: dose 10 mg/kg, route intravenous; conditions: plasma
Homo sapiens [3] = organism: Homo sapiens; experiment: Selectivity ratio of IC50 for PTPgamma to IC50 for human PTP1B (1 to 321 amino acid residues)
[4] = Clearance in C57 mouse at 10 mg/kg, iv; format: ADME, organism-based; set-up: dose 10 mg/kg, route intravenous; conditions: in vivo
Homo sapiens [5] = organism: Homo sapiens; experiment: Selectivity ratio of IC50 for CD45 to IC50 for human PTP1B (1 to 321 amino acid residues)
Homo sapiens [6] = organism: Homo sapiens; experiment: Selectivity ratio of IC50 for YOP to IC50 for human PTP1B (1 to 321 amino acid residues)
Homo sapiens [7] = organism: Homo sapiens; experiment: Selectivity ratio of IC50 for LAR to IC50 for human PTP1B (1 to 321 amino acid residues)
Homo sapiens [8] = organism: Homo sapiens; experiment: Selectivity ratio of IC50 for PTPalpha to IC50 for human PTP1B (1 to 321 amino acid residues)
Homo sapiens [9] = organism: Homo sapiens; experiment: Selectivity ratio of IC50 for TCPTP to IC50 for human PTP1B (1 to 321 amino acid residues)
[10] = Oral bioavailability in C57 mouse at 50 mg/kg; format: ADME, organism-based; conditions: in vivo
Homo sapiens [11] = organism: Homo sapiens; experiment: Selectivity ratio of IC50 for PTPepsilon to IC50 for human PTP1B (1 to 321 amino acid residues)
Homo sapiens [12] = organism: Homo sapiens; experiment: Selectivity ratio of IC50 for PTPbeta to IC50 for human PTP1B (1 to 321 amino acid residues)
[13] = Half life in C57 mouse at 50 mg/kg, po; format: ADME, organism-based; set-up: dose 50 mg/kg, route oral; conditions: in vivo
[14] = Volume of distribution in C57 mouse at 10 mg/kg, iv; format: ADME, organism-based; set-up: dose 10 mg/kg, route intravenous; conditions: in vivo
[15] = AUC in C57 mouse at 50 mg/kg, po; format: ADME, organism-based; set-up: dose 50 mg/kg, route oral; conditions: plasma
Homo sapiens [16] = organism: Homo sapiens; experiment: Selectivity ratio of IC50 for HCP to IC50 for human PTP1B (1 to 321 amino acid residues)
[17] = Cmax in C57 mouse at 50 mg/kg, po; format: ADME, organism-based; set-up: dose 50 mg/kg, route oral; conditions: in vivo
Homo sapiens [18] = organism: Homo sapiens; experiment: Selectivity ratio of IC50 for SHP2 to IC50 for human PTP1B (1 to 321 amino acid residues)
[19] = Clearance in C57 mouse at 5 mg/kg, iv; format: ADME, organism-based; set-up: dose 5 mg/kg, route intravenous; conditions: in vivo
[20] = AUC in C57 mouse at 5 mg/kg, iv; format: ADME, organism-based; set-up: dose 5 mg/kg, route intravenous; conditions: plasma
[21] = Volume of distribution in C57 mouse at 5 mg/kg, iv; format: ADME, organism-based; set-up: dose 5 mg/kg, route intravenous; conditions: in vivo
[22] = biological target: T2, Tyrosine-protein phosphatase non-receptor type 1 (Homo sapiens) (UniProt P18031); conditions: 0.29 to 3.3 uM
T2 sequence (whole entry): T1 sequence (P18031 whole entry)
Description: Uncompetitive inhibition of human PTP1B (1 to 321 amino acid residues) expressed in Escherichia coli using DiFMUP as substrate at 0.29 to 3.3 uM by Lineweaver-Burke plot analysis

IC50 [1]: 1.16 µM
Structure (SMILES): CNc1nc(N)nc2nc(-c3ccccc3Cl)ccc12

IC50 [1]: 1.37 µM
Structure (SMILES): CNc1nc(N)nc2nc(-c3ccccc3[N+](=O)[O-])ccc12

IC50 [1]: 1 µM
Structure (SMILES): CNc1nc(N)nc2nc(-c3ccccc3C(F)(F)F)c(S(C)(=O)=O)cc12

IC50 [1]: 1.34 µM
Structure (SMILES): CCNc1nc(N)nc2nc(-c3ccccc3C(F)(F)F)ccc12

IC50 [1]: 0.27 µM
Structure (SMILES): CCCc1cc2c(NC)nc(N)nc2nc1-c1ccccc1C(F)(F)F

IC50 [1]: 1.85 µM
Structure (SMILES): Nc1nc(NCCO)c2ccc(-c3ccccc3C(F)(F)F)nc2n1

IC50 [1]: 0.35 µM
Structure (SMILES): CNc1nc(N)nc2nc(-c3c(SC)cccc3C(F)(F)F)ccc12

IC50 [1]: 0.61 µM
Structure (SMILES): CNc1nc(N)nc2nc(-c3ccc(Cl)cc3Cl)ccc12

IC50 [1]: 0.62 µM
Structure (SMILES): CNc1nc(N)nc2nc(-c3c(F)cccc3N3CCCC3)ccc12

IC50 [1]: 0.56 µM
Structure (SMILES): CNc1nc(N)nc2nc(-c3c(OC)cccc3C(F)(F)F)ccc12

AUC [2]: 6970 ng·h/mL
Ratio IC50 (Homo sapiens [3]): > 100
clearance [4]: 24 mL/min/kg
Ratio IC50 (Homo sapiens [5]): > 100
Ratio IC50 (Homo sapiens [6]): > 100
Ratio IC50 (Homo sapiens [7]): > 100
Ratio IC50 (Homo sapiens [8]): > 100
Ratio IC50 (Homo sapiens [9]): 2
bioavailability [10]: 32%
Ratio IC50 (Homo sapiens [11]): > 100
Ratio IC50 (Homo sapiens [12]): > 100
half-life [13]: 1.3 h
Vd [14]: 0.9 L/kg
AUC [15]: 11000 ng·h/mL
Ratio IC50 (Homo sapiens [16]): > 100
IC50 [1]: 0.2 µM
Cmax [17]: 2200 ng/mL
Ratio IC50 (Homo sapiens [18]): > 100
Structure (SMILES): CNc1nc(N)nc2nc(-c3c(Oc4ccccc4)cccc3C(F)(F)F)ccc12

IC50 [1]: 0.82 µM
Structure (SMILES): CNc1nc(N)nc2nc(-c3c(Cl)cccc3N3CCCC3)ccc12

IC50 [1]: 0.96 µM
Structure (SMILES): CNc1nc(N)nc2nc(-c3cc(Cl)ccc3Cl)ccc12

IC50 [1]: 1.18 µM
Structure (SMILES): CNc1nc(N)nc2nc(-c3cccc(Cl)c3Cl)ccc12

IC50 [1]: 1.15 µM
Structure (SMILES): CNc1nc(N)nc2nc(-c3c(N4CCOCC4)cccc3C(F)(F)F)ccc12

IC50 [1]: 0.53 µM
Structure (SMILES): CNc1nc(N)nc2nc(-c3ccccc3Br)ccc12

IC50 [1]: 0.26 µM
Structure (SMILES): CNc1nc(N)nc2nc(-c3c(F)cccc3C(F)(F)F)ccc12

IC50 [1]: 2.79 µM
Structure (SMILES): CNc1nc(N)nc2nc(-c3ccccc3OC)ccc12

IC50 [1]: 1.35 µM
Structure (SMILES): CNc1nc(N)nc2nc(-c3c(N4CCCCC4)cccc3C(F)(F)F)ccc12

IC50 [1]: 2.39 µM
Structure (SMILES): CNc1nc(N)nc2nc(-c3ccccc3C(=O)O)ccc12

IC50 [1]: 0.5 µM
Structure (SMILES): CNc1nc(N)nc2nc(-c3ccccc3C(F)(F)F)c(C)cc12

clearance [19]: 61 mL/min/kg
Ratio IC50 (Homo sapiens [3]): > 100
Ratio IC50 (Homo sapiens [5]): > 100
Ratio IC50 (Homo sapiens [6]): > 100
Ratio IC50 (Homo sapiens [7]): > 100
AUC [20]: 1370 ng·h/mL
Vd [21]: 1.8 L/kg
Ratio IC50 (Homo sapiens [8]): > 100
Ratio IC50 (Homo sapiens [9]): 2
bioavailability [10]: 66%
Ratio IC50 (Homo sapiens [11]): > 100
Ratio IC50 (Homo sapiens [12]): > 100
half-life [13]: 7.2 h
inhibition [22]: Active
AUC [15]: 8990 ng·h/mL
Ratio IC50 (Homo sapiens [16]): > 100
IC50 [1]: 0.48 µM
Cmax [17]: 3530 ng/mL
Ratio IC50 (Homo sapiens [18]): > 100
Structure (SMILES): CNc1nc(N)nc2nc(-c3ccccc3C(F)(F)F)ccc12

IC50 [1]: 2.43 µM
Structure (SMILES): CCCNc1nc(N)nc2nc(-c3ccccc3C(F)(F)F)ccc12

IC50 [1]: 0.43 µM
Structure (SMILES): CNc1nc(N)nc2nc(-c3c(N4CCCC4)cccc3C(F)(F)F)ccc12

Source: ChEMBL document CHEMBL2203097, “7-Phenyl-pyrido[2,3-d]pyrimidine-2,4-diamines: novel and highly selective protein tyrosine phosphatase 1B inhibitors” (Bioorg Med Chem Lett, 2012)
